Experiment [1] deals with T1, wild type LRRK2 overexpressed in recombinant HEK-293T cells (Homo sapiens, UniProt Q5S007).
T1 construct: host or cells: HEK293T (transient transfection with pCMV-LRRK2 WT plasmid)
The experiment is described as follows: pS935 LRRK2 Cell Assay (HTRF, phospho-LRRK2 Ser935). To be noted: LRRK2 Inhibition, Table 8, 2 hours compound incubation. The format is cell-based. The gist of the method: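 HEK-293T cells transiently transfected with wild-type LRRK2 for 24 h, plated overnight, then treated 2 h at 37° C with compound (top 10 μM, 3-fold, 9 doses, duplicates, 0.2% DMSO). Lysates probed overnight at 23° C by sandwich HTRF for pSer935; 665/615 nm ratio read.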

The target in experiment [2] is LRRK2 wild type enzyme (Homo sapiens, UniProt Q5S007). The experiment in a line: Biochemical Assay: LRRK2 TR-FRET (LanthaScreen) kinase assay with LRRKtide substrate. The note with it: LRRK2 Inhibition, Table 8. The essentials:
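Human wild-type LRRK2 (3 nM) preincubated 15 min with compound (11-point, 3-fold, top 10 μM), then reacted 120 min at 23 °C with 400 nM LRRKtide and 25 μM ATP, pH 8.0. Stopped with EDTA; Tb-anti-pLRRKtide TR-FRET read after 30 min.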
(TR-FRET usually uses a lanthanide donor and a delayed reading to cut background.)

What is called IC50 is the concentration needed to halve the response being measured.

Each structure is given as a SMILES string.

LRRK2 wild type enzyme, sequence (Q5S007 whole entry): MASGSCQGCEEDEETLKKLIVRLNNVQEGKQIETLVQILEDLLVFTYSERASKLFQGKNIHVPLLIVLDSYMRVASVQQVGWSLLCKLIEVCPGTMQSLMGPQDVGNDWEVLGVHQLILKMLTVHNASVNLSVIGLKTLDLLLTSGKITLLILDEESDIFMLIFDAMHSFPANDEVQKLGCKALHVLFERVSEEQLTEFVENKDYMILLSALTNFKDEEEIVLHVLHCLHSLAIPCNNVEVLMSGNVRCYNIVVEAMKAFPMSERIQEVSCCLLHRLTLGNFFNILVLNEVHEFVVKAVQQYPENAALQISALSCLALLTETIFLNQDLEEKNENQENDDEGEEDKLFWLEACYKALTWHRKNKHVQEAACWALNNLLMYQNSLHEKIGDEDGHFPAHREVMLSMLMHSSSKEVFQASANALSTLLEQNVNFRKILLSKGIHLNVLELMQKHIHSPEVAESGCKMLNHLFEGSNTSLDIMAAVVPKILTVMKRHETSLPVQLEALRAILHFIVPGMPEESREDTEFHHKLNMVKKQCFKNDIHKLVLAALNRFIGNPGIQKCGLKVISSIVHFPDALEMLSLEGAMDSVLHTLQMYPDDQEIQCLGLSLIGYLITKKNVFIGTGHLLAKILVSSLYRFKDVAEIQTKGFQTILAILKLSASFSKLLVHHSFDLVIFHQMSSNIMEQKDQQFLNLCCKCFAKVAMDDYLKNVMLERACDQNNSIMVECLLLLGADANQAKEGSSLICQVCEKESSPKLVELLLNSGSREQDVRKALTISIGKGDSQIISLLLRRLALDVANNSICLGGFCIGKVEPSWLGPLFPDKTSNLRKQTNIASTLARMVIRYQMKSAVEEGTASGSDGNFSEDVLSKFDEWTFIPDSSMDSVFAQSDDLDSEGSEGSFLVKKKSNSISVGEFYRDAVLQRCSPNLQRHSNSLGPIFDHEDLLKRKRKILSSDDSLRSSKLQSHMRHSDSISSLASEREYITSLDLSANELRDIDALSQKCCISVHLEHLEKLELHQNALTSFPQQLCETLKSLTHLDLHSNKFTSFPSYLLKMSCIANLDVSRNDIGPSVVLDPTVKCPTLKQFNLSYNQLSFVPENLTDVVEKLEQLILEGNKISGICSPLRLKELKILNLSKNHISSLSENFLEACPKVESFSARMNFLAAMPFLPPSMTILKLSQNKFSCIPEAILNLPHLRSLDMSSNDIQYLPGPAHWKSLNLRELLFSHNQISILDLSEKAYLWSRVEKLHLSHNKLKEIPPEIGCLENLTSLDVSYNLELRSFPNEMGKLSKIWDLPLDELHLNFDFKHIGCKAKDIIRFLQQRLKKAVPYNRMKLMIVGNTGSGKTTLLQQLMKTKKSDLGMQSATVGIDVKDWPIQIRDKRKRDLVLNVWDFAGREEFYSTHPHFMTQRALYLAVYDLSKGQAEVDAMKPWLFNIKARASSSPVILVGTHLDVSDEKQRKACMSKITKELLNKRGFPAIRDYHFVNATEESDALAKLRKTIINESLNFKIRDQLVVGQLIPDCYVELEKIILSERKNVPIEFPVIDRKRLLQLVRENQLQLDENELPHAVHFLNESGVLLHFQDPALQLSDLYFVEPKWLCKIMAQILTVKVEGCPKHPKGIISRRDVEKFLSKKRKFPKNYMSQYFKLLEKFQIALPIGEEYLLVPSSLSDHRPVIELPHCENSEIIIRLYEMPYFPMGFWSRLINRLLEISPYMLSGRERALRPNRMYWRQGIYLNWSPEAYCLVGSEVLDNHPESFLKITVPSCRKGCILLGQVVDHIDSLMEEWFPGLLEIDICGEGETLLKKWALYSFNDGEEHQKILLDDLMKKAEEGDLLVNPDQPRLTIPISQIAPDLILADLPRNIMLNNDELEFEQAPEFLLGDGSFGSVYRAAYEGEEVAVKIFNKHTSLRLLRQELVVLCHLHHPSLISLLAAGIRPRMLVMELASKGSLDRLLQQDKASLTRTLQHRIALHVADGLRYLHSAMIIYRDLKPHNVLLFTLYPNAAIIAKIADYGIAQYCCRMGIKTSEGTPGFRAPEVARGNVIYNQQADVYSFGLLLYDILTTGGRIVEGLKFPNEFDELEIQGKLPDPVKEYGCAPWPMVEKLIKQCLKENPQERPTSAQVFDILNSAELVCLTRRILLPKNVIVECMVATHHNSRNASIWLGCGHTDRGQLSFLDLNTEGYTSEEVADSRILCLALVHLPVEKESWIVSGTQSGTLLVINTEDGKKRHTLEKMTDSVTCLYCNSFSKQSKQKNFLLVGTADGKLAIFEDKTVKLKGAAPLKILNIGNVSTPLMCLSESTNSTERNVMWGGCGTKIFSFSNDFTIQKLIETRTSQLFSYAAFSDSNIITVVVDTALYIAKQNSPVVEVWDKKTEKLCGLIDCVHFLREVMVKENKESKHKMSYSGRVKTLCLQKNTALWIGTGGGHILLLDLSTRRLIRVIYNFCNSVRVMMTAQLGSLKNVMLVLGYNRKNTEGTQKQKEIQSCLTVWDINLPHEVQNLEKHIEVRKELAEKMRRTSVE
T1 sequence (Q5S007 whole entry): as above

As for `COCCn1cc(N2CC(c3nc4cnc5ccc(C#N)cc5c4n3[C@@H]3CCO[C@H](C)C3)CC2=O)cn1` (stereo partly drawn) [Compound 171, 2-{1-[1-(2-methoxyethyl)-1H-pyrazol-4-yl]-5-oxopyrrolidin-3-yl}-1-[(2R,4R)-2-methyloxan-4-yl]-1H-imidazo[4,5-c]quinoline-8-carbonitrile], the IC50 in experiment [1] was 434 nM; in experiment [2], 1.46 nM.
Taken in the same sequence, the figures for `C[C@@H]1C[C@H](n2c(CC(=O)Nc3ccncc3)nc3cnc4ccc(C#N)cc4c32)CCO1` [Compound 326, N-4-pyridyl{3-[(2R,4R)-2-methyltetrahydro-2H-pyran-4-yl]-12-cyano-3,5,8-triazatricyclo[7.4.0.0^2,6]trideca-1(9),2(6),4,7,10,12-hexaen-4-yl}acetamide] were 4.86 nM and 0.492 nM.
Take `C[C@@H]1C[C@H](n2c(CNC(=O)OC3CC3)nc3cnc4ccc(C#N)cc4c32)CCO1` [Compound 10, cyclopropyl N-({8-cyano-1-[(2R,4R)-2-methyloxan-4-yl]-1H-imidazo[4,5-c]quinolin-2-yl}methyl)carbamate]: the IC50 worked out at 165 nM in experiment [1] and 1.92 nM in experiment [2].
Taken in the same sequence, the figures for `CC(=O)N1CC[C@H](c2nc3cnc4ccc(C#N)cc4c3n2[C@@H]2CCO[C@H](C)C2)C1` [Compound 43, 2-[(3S)-1-acetylpyrrolidin-3-yl]-1-[(2R,4R)-2-methyloxan-4-yl]-1H-imidazo[4,5-c]quinoline-8-carbonitrile] were 1680 nM and 12.4 nM.
Taken in the same sequence, the figures for `C[C@@H]1C[C@H](n2c(CC(=O)N[C@H]3C[C@H]3F)nc3cnc4ccc(C#N)cc4c32)CCO1` [Compound 289, N-[(1S,2R)-2-fluorocyclopropyl]{3-[(2R,4R)-2-methyltetrahydro-2H-pyran-4-yl]-12-cyano-3,5,8-triazatricyclo[7.4.0.0^2,6]trideca-1,4,6,8,10,12-hexaen-4-yl}acetamide] were 54.5 nM and 0.692 nM.
Regarding `C[C@@H]1C[C@H](n2c(C3CC(=O)N(Cc4ccccn4)C3)nc3cnc4ccc(C#N)cc4c32)CCO1` (mixture of isomers) [Compound 61, 1-[(2R,4R)-2-methyloxan-4-yl]-2-{5-oxo-1-[(pyridin-2-yl)methyl]pyrrolidin-3-yl}-1H-imidazo[4,5-c]quinoline-8-carbonitrile], the values for the IC50 in experiment [1] and in experiment [2] were 89.2 nM and 1.09 nM, respectively.
On to `C[C@@H]1C[C@H](n2c(CC(=O)Nc3cccn(CCO)c3=O)nc3cnc4ccc(C#N)cc4c32)CCO1` [Compound 225, N-[1-(2-hydroxyethyl)-2-oxo-1,2-dihydro-3-pyridyl]{3-[(2R,4R)-2-methyltetrahydro-2H-pyran-4-yl]-12-cyano-3,5,8-triazatricyclo[7.4.0.0^2,6]trideca-1,4,6,8,10,12-hexaen-4-yl}acetamide], for which the figures for the half-maximal inhibitory concentration (IC50) in experiment [1] and in experiment [2] were 104 nM and 0.388 nM, respectively.
Regarding `C[C@@H]1C[C@H](n2c(CC(=O)NCc3cc(C4CC4)on3)nc3cnc4ccc(C#N)cc4c32)CCO1` [Compound 161, 2-{8-cyano-1-[(2R,4R)-2-methyloxan-4-yl]-1H-imidazo[4,5-c]quinolin-2-yl}-N-[(5-cyclopropyl-1,2-oxazol-3-yl)methyl]acetamide], the IC50 in experiment [1] is 4.38 nM; in experiment [2] it was 0.356 nM.
For `C[C@@H]1C[C@H](n2c([C@H]3CN(CC4CC4)S(=O)(=O)C3)nc3cnc4ccc(C#N)cc4c32)CCO1` [Compound 2, 2-[(4R)-2-(cyclopropylmethyl)-1,1-dioxo-1λ^6,2-thiazolidin-4-yl]-1-[(2R,4R)-2-methyloxan-4-yl]-1H-imidazo[4,5-c]quinoline-8-carbonitrile], the figures for the IC50 in experiment [1] and in experiment [2] were 39.2 nM and 0.662 nM, respectively.
In the case of `C[C@@H]1C[C@H](n2c(CC(=O)NCC3COC3)nc3cnc4ccc(C#N)cc4c32)CCO1` [Compound 177, 2-{8-cyano-1-[(2R,4R)-2-methyloxan-4-yl]-1H-imidazo[4,5-c]quinolin-2-yl}-N-[(oxetan-3-yl)methyl]acetamide], the IC50 in experiment [1] turned out to be 124 nM; in experiment [2], 0.524 nM.
With `C[C@@H]1C[C@H](n2c(CC(=O)NCC(C)(C)CO)nc3cnc4ccc(C#N)cc4c32)CCO1` [Compound 241, N-(3-hydroxy-2,2-dimethylpropyl){3-[(2R,4R)-2-methyltetrahydro-2H-pyran-4-yl]-12-cyano-3,5,8-triazatricyclo[7.4.0.0^2,6]trideca-1(9),2(6),4,7,10,12-hexaen-4-yl}acetamide], the IC50 in experiment [1] was determined as 77.6 nM; in experiment [2] it was 0.991 nM.
Turning to `C[C@@H]1C[C@H](n2c(C3CCN(S(=O)(=O)c4cnn(C)c4)CC3)nc3cnc4ccc(C#N)cc4c32)CCO1` [Compound 121, 2-{1-[(1-methyl-1H-pyrazol-4-yl)sulfonyl]piperidin-4-yl}-1-[(2R,4R)-2-methyloxan-4-yl]-1H-imidazo[4,5-c]quinoline-8-carbonitrile], the half-inhibitory concentration (IC50) was determined as 493 nM in experiment [1] and 1.81 nM in experiment [2].
Taken in the same sequence, the figures for `Cc1cc(NC(=O)Cc2nc3cnc4ccc(C#N)cc4c3n2[C@@H]2CCO[C@H](C)C2)c(=O)n(C)n1` [Compound 214, N-(2-methyl-6-methyl-3-oxo-2,3-dihydro-4-pyridazinyl){3-[(2R,4R)-2-methyltetrahydro-2H-pyran-4-yl]-12-cyano-3,5,8-triazatricyclo[7.4.0.0^2,6]trideca-1,4,6,8,10,12-hexaen-4-yl}acetamide] were 10.3 nM and 0.294 nM.
Regarding `COc1ncnc(C)c1NC(=O)Cc1nc2cnc3ccc(C#N)cc3c2n1[C@@H]1CCO[C@H](C)C1` [Compound 204, N-(4-methoxy-6-methyl-5-pyrimidinyl){3-[(2R,4R)-2-methyltetrahydro-2H-pyran-4-yl]-12-cyano-3,5,8-triazatricyclo[7.4.0.0^2,6]trideca-1,4,6,8,10,12-hexaen-4-yl}acetamide], the figures for the IC50 in experiment [1] and in experiment [2] were 6.64 nM and 0.466 nM, respectively.
`Cc1ccc(CN2CC(c3nc4cnc5ccc(C#N)cc5c4n3[C@@H]3CCO[C@H](C)C3)CC2=O)cn1` (stereo partly drawn) [Compound 13, 1-[(2R,4R)-2-methyloxan-4-yl]-2-{1-[(6-methylpyridin-3-yl)methyl]-5-oxopyrrolidin-3-yl}-1H-imidazo[4,5-c]quinoline-8-carbonitrile]: the IC50 was found to be 180 nM in experiment [1] and 1.19 nM in experiment [2].
With `C[C@@H]1C[C@H](n2c(CC(=O)Nc3cccn(CC(C)(C)O)c3=O)nc3cnc4ccc(C#N)cc4c32)CCO1` [Compound 240, N-[1-(2-hydroxy-2-methylpropyl)-2-oxo-1,2-dihydro-3-pyridyl]{3-[(2R,4R)-2-methyltetrahydro-2H-pyran-4-yl]-12-cyano-3,5,8-triazatricyclo[7.4.0.0^2,6]trideca-1(9),2(6),4,7,10,12-hexaen-4-yl}acetamide], the IC50 was found to be 26.7 nM in experiment [1] and 0.328 nM in experiment [2].
In the case of `Cc1c(NC(=O)Cc2nc3cnc4ccc(C#N)cc4c3n2[C@@H]2CCO[C@H](C)C2)cnn1C` [Compound 237, N-(1-methyl-5-methyl-4-pyrazolyl){3-[(2R,4R)-2-methyltetrahydro-2H-pyran-4-yl]-12-cyano-3,5,8-triazatricyclo[7.4.0.0^2,6]trideca-1,4,6,8,10,12-hexaen-4-yl}acetamide], the IC50 is 23.4 nM in experiment [1] and 0.405 nM in experiment [2].

For the origin of these results see patent US20250270209A1 (INTERLINE THERAPEUTICS, INC., priority 2022, published 2025).
